For 29 compounds, IC50, Papp A→B and Papp B→A results are on record in US20190169140A1, “IDO1 INHIBITOR AND PREPARATION METHOD AND APPLICATION THEREOF” (SHANDONG LUYE PHARMACEUTICAL CO., LTD., priority 2016, published 2019).

In data set [1] the target is T1, recombinant human IDO1 enzyme (Homo sapiens, UniProt P14902).
T1 construct: purchased NTRC (Netherlands Translational Research Center) NTRC-hIDO-10K
Description: Test of hIDO1 for enzymatic activity in vitro (NFK Green fluorescence). Format: biochemical. As for the experimental part:
1. Test of hIDO1 for Enzymatic Activity In Vitro
1.1 Purpose of Experiment:
Changes in production of NFK, an IDO1 enzymatic metabolite were detected with NFK Green™ fluorescent molecules. With an IC50 value of a compound as an index, an inhibitory effect of the compound on recombinant human IDO1 enzyme was evaluated.
The compound was diluted with dimethyl sulfoxide (DMSO) to 1 mM, with 10 gradients, each 3-fold dilution, in duplicate. 48 μL of 50 mM phosphate buffer, having pH of 6.5, was transferred by the Bravo automatic liquid processing platform to the compound plate. Then 2 μL of an already diluted compound/DMSO solution was added. After even mixing, 10 μL of the resultant mixture was transferred to the enzymatic reaction plate.
IDO1 enzyme was diluted to 20 nM in a reaction buffer (50 mM phosphate buffer with pH of 6.5, 0.1% of Tween-20, 2% of glycerol, 20 mM ascorbic acid, 20 μg/ml catalase, and 20 μM methylene blue), 20 μL of the diluted IDO1 enzyme was transferred to the enzymatic reaction plate, and incubated at 23° C. for 30 minutes. 10 μL of 400 μM L-type tryptophan substrate was added to start reaction. The incubation lasted at 23° C. for 90 minutes. 10 μL of NFK Green™ fluorescent dye was added. The resultant mixture was sealed with the plate sealing film. After incubation at 37° C. for 4 hours, an Envision multi-functional plate reader was used for reading (Ex 400 nm/Em 510 nm).
A reference well to which the IDO1 enzyme was added but no compound was added was set to have an inhibition rate of 0%, and a reference well to which no IDO1 enzyme was added was set to have an inhibition rate of 100%. Data was analyzed with XLFit 5 to calculate an IC50 value of the compound.

Data set [2] deals with T2, IDO1 enzyme in Hela cells (Homo sapiens, UniProt P14902).
T2 construct: endogenous in cells; host or cells: Hela cells, induced with recombinant human interferon-γ
T2 sequence (P14902 whole entry): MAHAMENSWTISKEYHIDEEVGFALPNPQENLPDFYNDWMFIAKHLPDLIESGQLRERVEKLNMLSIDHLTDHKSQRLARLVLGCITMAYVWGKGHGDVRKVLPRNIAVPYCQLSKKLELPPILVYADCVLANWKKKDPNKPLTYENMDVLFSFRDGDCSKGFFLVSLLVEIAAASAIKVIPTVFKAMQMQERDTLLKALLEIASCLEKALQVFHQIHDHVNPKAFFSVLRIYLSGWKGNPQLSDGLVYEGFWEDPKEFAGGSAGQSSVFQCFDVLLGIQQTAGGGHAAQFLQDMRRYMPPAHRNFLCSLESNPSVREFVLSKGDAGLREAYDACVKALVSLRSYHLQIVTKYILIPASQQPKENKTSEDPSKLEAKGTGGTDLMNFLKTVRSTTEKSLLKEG
Description: Test of hIDO1 for cytological activity (Hela cell kynurenine by LCMS, interferon-γ induced). Format: cell-based. As to conditions: interferon-γ 100 ng/ml, 20 hours. As to the method: 2. Test of hIDO1 for Cytological Activity
Changes in Hela cell kynurenine were detected by an LCMS method. With an IC50 value of a compound as an index, an inhibitory effect of the compound on IDO1 enzyme was evaluated.
The culture medium, trypsin, and DPBS were preheated in water bath at 37° C. The culture medium was removed by sucking from cell culture, followed by cleaning the cell culture with 10 mL of DPBS; the preheated trypsin was added to the culture flask, which was revolved to make the culture flask covered by trypsin uniformly, and placed into an incubator at 37° C. with 5% CO2 for digestion for 1-2 minutes; 10-15 mL of the culture medium was used to suspend cells each T150, followed by centrifugation at 800 rpm for 5 minutes. 10 mL of the culture medium was used to resuspend the cells. 1 mL of the cell resuspension was pipetted, and counted with Vi-cell; the Hela cells were diluted to 5×10^5/mL with the culture medium, 80 μL of the diluted Hela cells were added to the 96-well cell plate, and incubated in the an incubator at 37° C. with 5% CO2 for 5-6 hours.
The compound was diluted with DMSO to 1 mM, with 9 gradients, each 3-fold dilution, in duplicate. 5 μL of the already diluted compound DMSO solution was added to the compound plate containing 95 μL of the culture medium. After even mixing, 10 μL of the mixture was transferred to the cell plate.
10 μL of recombinant human interferon-γ was added to result in a final concentration of 100 ng/ml, to induce expression of IDO1. Incubation was carried out in the 5% CO2 incubator at 37° C. for 20 hours. 4 μL of 5% (w/v) trichloroacetic acid was added, followed by even mixing and incubation at 50° C. for 30 minutes. After centrifugation at 2400 rpm for 10 minutes, 40 μL of a supernatant was added to a 96-well V-bottom plate, followed by addition of a precipitant. Centrifugation was carried out at 4000 rpm for 10 minutes after even mixing. 100 μL of the supernatant was transferred to a new 96-well V-bottom plate. A content of kynurenine was detected through LCMS.
A reference well to which the interferon-γ was added but no compound was added was set to have an inhibition rate of 0%, and a reference well to which no Hela cell was added was set to have an inhibition rate of 100%. Data was analyzed with XLFit 5 to calculate an IC50 value of the compound.

Data set [3] is described as follows: Test for permeability across MDR1. In kind it is in vitro ADME. As to conditions: dog, MDCK-MDR1. As for the experimental part:
Test for Permeability Across MDR1
A sample for test was dissolved in dimethyl sulfoxide (DMSO) or other suitable solvents, to be prepared into 10 mM stock solution. A suitable internal standard (IS) was dissolved in acetonitrile (ACN) or other organic solvents as a stop solution. Specific information would be described in a research report.
Fenoterol, propranolol, and digoxin acted as low-permeability control, high-permeability control, and P-gp substrate in the present research. The stock solutions of these compounds were prepared with DMSO, stocked at 2-8° C., and valid for use within 3 months.
In the present project, a Hank's balanced salt buffer containing 10 mM HEPES was used as a transport buffer.
MDR1-MDCK II cells were cultivated using α-MEM culture media (α-Minimum Essential Media), with a culture condition of 37±1° C., 5% CO2, and saturated relative humidity. Afterwards, the cells were inoculated into a BD Transwell-96-well plate (BD Gentest), with an inoculation density of 2.3×10^5 cells/cm^2, then the cells were placed in a carbon dioxide incubator to be incubated for 4-7 days, and then used for a transport experiment.
A solution to be used was placed in a 37±1° C. water bath kettle to be pre-incubated for 30 minutes. The donor solution and the receiver solution were respectively added to corresponding sides of wells of cell plate (to an apical side and a basolateral side, 75 μL and 250 μL of samples were added respectively), and experiment of bidirectional transport was started. After the addition of the samples, the cell plate was placed in a 37±1° C., 5% CO2 incubator with saturated relative humidity to be incubated for 150 minutes.
The samples were all centrifuged at 3220 g for 10 minutes after being shaken in a vortex manner. A suitable volume of a supernatant was transferred to a sample analyzing plate. If analysis was not carried out immediately after the plate was sealed, the plate was stored at 2-8° C. The analysis was carried out through a method of LC/MS/MS.
The sample for test, fenoterol control, propranolol control, and digoxin were analyzed in a semiquantitative manner, and specific values of analytes to a peak area of the internal standard were taken as concentration of the controls.

T1 sequence (P14902 whole entry): as above

By IC50 is commonly meant the concentration that inhibits the measured activity by half. As for `O=S(=O)(O)NCCOc1nonc1/C(=N/O)Nc1ccc(F)c(Br)c1` [Compound 0148], the IC50 was 147 nM in data set [1] and 159 nM in data set [2].
With `NS(=O)(=O)NCCOc1nonc1C(=NO)Nc1ccc(F)c(C(F)F)c1` [Compound 0151], the IC50 is 149 nM in data set [1] and 25.2 nM in data set [2].
On the same counts, the results for `O=CNCCOc1nonc1/C(=N/O)Nc1ccc(F)c(Br)c1` [Compound 0153] are 153 nM and 82.4 nM.
As to `NS(=O)(=O)NCCSc1nonc1/C(=N/O)Nc1ccc(F)c(C(F)(F)F)c1` [Compound 0157], the IC50 in data set [1] was 160 nM; in data set [2], 13.4 nM.
As to `OCCOc1nonc1/C(=N/O)Nc1ccc(F)c(Br)c1` [Compound 0177], the 50% inhibitory concentration (IC50) in data set [1] came to 279 nM; in data set [2] it was 54.2 nM.
For the compound `NS(=O)(=O)N[C@H]1C[C@@H](Oc2nonc2/C(=N/O)Nc2ccc(F)c(Br)c2)C1` [Compound 0225], the IC50 in data set [1] was found to be 274 nM; in data set [2], 18.7 nM.
The term Papp A→B denotes the apparent permeability from the apical to the basolateral side of a cell layer. A low value points to slow passage. The term Papp B→A denotes the apparent permeability from the basolateral to the apical side of a cell layer. Regarding `CCS(=O)(=O)NCCSc1nonc1/C(=N/O)Nc1ccc(F)c(Br)c1` [Compound 0228], the half-inhibitory concentration (IC50) in data set [1] came to 101 nM. Also, in data set [3], the apparent permeability from apical to basolateral (Papp A→B) at 150 min, 2 µM was found to be 6.78 ×10⁻⁶ cm/s and the Papp B→A at 150 min, 2 µM came to 10.5 ×10⁻⁶ cm/s. The compound also had an IC50 in data set [2] of 3.97 nM.
`CS(=O)(=O)NCCSc1nonc1/C(=N/O)Nc1ccc(F)c(Br)c1` [Compound 0229]: the IC50 in data set [1] worked out at 80.1 nM; in data set [2] it was 11.2 nM.
In the case of `CNC(=O)NCCSc1nonc1/C(=N/O)Nc1ccc(F)c(Br)c1` [Compound 0233], the figures for the half-maximal inhibitory concentration (IC50) in data set [1] and in data set [2] were 109 nM and 19.2 nM, respectively.
For `O=C(NCCSc1nonc1/C(=N/O)Nc1ccc(F)c(Br)c1)NC1CC1` [Compound 0234], the figures for the IC50 in data set [1] and in data set [2] were 77 nM and 9.58 nM, respectively.
For `O=C(NCCSc1nonc1/C(=N/O)Nc1ccc(F)c(Br)c1)C1CC1` [Compound 0236], the IC50 is 129 nM in data set [1] and 55.4 nM in data set [2].
Regarding `CNC(=O)CSc1nonc1/C(=N/O)Nc1ccc(F)c(Br)c1` [Compound 0237], the IC50 in data set [1] came out at 42.3 nM; in data set [2], 8.51 nM.
In the same order, the values of `CNC(=O)CCSc1nonc1/C(=N/O)Nc1ccc(F)c(Br)c1` [Compound 0238] are 85.4 nM and 13.9 nM.
Regarding `CNS(=O)(=O)NCCSc1nonc1/C(=N/O)Nc1ccc(F)c(Br)c1` [Compound 0240], the IC50 in data set [1] was determined as 128 nM; in data set [2], 26.2 nM.
As for `O=CNCCSc1nonc1/C(=N/O)Nc1ccc(F)c(Br)c1` [Compound 0245], the IC50 was determined as 74.4 nM in data set [1] and 14.8 nM in data set [2].
`O=C(CSc1nonc1/C(=N/O)Nc1ccc(F)c(Br)c1)NC1CC1` [Compound 0247]: the IC50 in data set [1] turned out to be 95.7 nM; in data set [2] it was 17.1 nM.
On the same counts, the results for `N#CCC(=O)NCCSc1nonc1/C(=N/O)Nc1ccc(F)c(Br)c1` [Compound 0249] are 164 nM and 30.3 nM.
`COC(=O)NCCSc1nonc1/C(=N/O)Nc1ccc(F)c(Br)c1` [Compound 0250]: the half-inhibitory concentration (IC50) in data set [1] was 138 nM; in data set [2], 27 nM.
In the case of `NC(=O)CSc1nonc1/C(=N/O)Nc1ccc(F)c(Br)c1` [Compound 0251], the IC50 in data set [1] is 44.3 nM; in data set [2] it was 7.15 nM.
Consider `O=C(CSc1nonc1/C(=N/O)Nc1ccc(F)c(Br)c1)NO` [Compound 0260], for which the IC50 in data set [1] was 74.6 nM; in data set [2] it was 31.5 nM.
On the same counts, the results for `NC(=O)CCSc1nonc1/C(=N/O)Nc1ccc(F)c(Br)c1` [Compound 0262] are 89.6 nM and 70.8 nM.
Regarding `NS(=O)(=O)NCCSc1nonc1/C(=N/O)Nc1ccc(F)c(I)c1` [Compound 0273], the IC50 in data set [1] worked out at 144 nM; in data set [2], 34.4 nM.
In the same order, the values of `O=C(NCCSc1nonc1/C(=N/O)Nc1ccc(F)c(Br)c1)C(F)F` [Compound 0287] are 69.4 nM and 12.9 nM.
In the case of `O=C(CO)NCCSc1nonc1/C(=N/O)Nc1ccc(F)c(Br)c1` [Compound 0293], the IC50 was determined as 60.1 nM in data set [1] and 29.5 nM in data set [2].
On to `NS(=O)(=O)NCCSc1nonc1/C(=N/O)Nc1cccc(I)c1` [Compound 0295], for which the IC50 in data set [1] was determined as 122 nM; in data set [2], 47.2 nM.
In the same order, the values of `NC(=O)NCCSc1nonc1/C(=N/O)Nc1cccc(I)c1` [Compound 0309] are 54.5 nM and 23.5 nM.
On to `N#C/N=C(\N)NCCSc1nonc1/C(=N/O)Nc1ccc(F)c(Br)c1` [Compound 0310], for which the IC50 in data set [1] worked out at 97.3 nM; in data set [2], 12.8 nM.
In the case of `N=C(N)NCCSc1nonc1/C(=N/O)Nc1ccc(F)c(Br)c1` [Compound 0383], the half-inhibitory concentration (IC50) in data set [1] amounted to 100 nM; in data set [2], 105 nM.
Regarding `N=C(N)NC(=N)NCCSc1nonc1/C(=N/O)Nc1ccc(F)c(Br)c1` [Compound 0384], the half-inhibitory concentration (IC50) in data set [1] was found to be 173 nM; in data set [2] it was 152 nM.
